According to US5512581A, “Iminoxycarboxylates and derivatives as inhibitors of leukotriene biosynthesis” (Abbott Laboratories, priority 1995, dated 1996):

System: leukotriene biosynthesis
Test: In vivo leukotriene inhibition in rat peritoneal anaphylaxis model
Details: 30 μmol/kg, oral gavage 1 h before antigen challenge
Procedure: Inhibition of the biosynthesis of leuktrienes in vivo after oral administration of compound was determined using a rat peritoneal anaphylaxis model in a similar manner as that described by Young and coworkers (Young, P. R.; Dyer, R. D.; Carter, G. W. Fed. Proc., Fed. Am. Soc. Exp. Biol. 1985, 44, 1185). In this model rats were injected intraperitoneally (ip) with rabbit antibody to bovine serum albumin (BSA) and three hours later injected ip with BSA to induce an antgen-antibody response. Rats were sacrificed 15 minutes after this challenge and the peritoneal fluids were collected and analyzed for leukotriene levels. Test compounds were administered by gavage one hour prior to the antigen challenge. Percent inhibition values were determined by comparing the treatment group to the mean of the control group.

Question: With `O=C(O)C=NOC(c1ccc(OCc2ccc3ccccc3n2)cc1)C1CCCCC1` (stereo not shown) [Example 1, Cyclohexyl-(4-(2-quinolylmethoxy)phenyl)methyl!iminoxyacetic acid] as the molecule, how does the “% Inhibition (dose)” value read?
Answer: 82%

Question: With `O=C(O)c1ccc(C=NOC(CC2CCCCC2)c2ccc(OCc3cscn3)cc2)cc1` (stereo not shown) [Example 19, O-2-cyclohexyl-1-(4-(4-thiazolylmethoxy)phenyl)eth-1-yl!-4-carboxybenzaldoxime] as the molecule, how does the “% Inhibition (dose)” value read?
Answer: 81%

Same assay, conditions: oral gavage 1 h before antigen challenge

Question: For `CC(=NOC(c1ccc(OCc2ccc3ccccc3n2)cc1)C1CCCCC1)C(=O)O` (stereo not shown) [Example 2, Cyclohexyl-(4-(2-quinolylmethoxy)phenyl)methyl!-2-iminoxy propionic acid], which ED50 is on record?
Answer: 1.2 mg/kg

Question: For `O=C(O)C=NOCC(c1ccc(OCc2ccc3ccccc3n2)cc1)C1CCCCCC1` (stereo not shown) [Example 27, 2-Cycloheptyl-2-(4-(2-quinolylmethoxy)phenyl)eth-1-yl!iminoxyacetic acid], which ED50 is on record?
Answer: 0.7 mg/kg

System: leukotriene
Test: In vivo leukotriene inhibition in rat pleural inflammation (A23187 ionophore-induced)
Details: 30 μmol/kg, dosed in 0.2% methocel 1 h before intrapleural A23187, male rats
Procedure: Pleural inflammation was induced in male rats following the method of Rao et al (Rao, T. S., Currie, J. L., Shaffer, A. F., Isakson, P. C., (1993) Evaluation of 5-lipoxygenase Inhibitors, Zileuton, A-78773 and ICI D-2138 in an Ionophore (A-23 187) Induced Pleural Inflammation Model in the Rat. Life Sciences, 53: 147). Rats were dosed with experimental compounds in 0.2% methocel one hour prior to the intrapleural injection of the calcium ionophore, A23 187. The rats where lightly anesthetized with Pentrane (Abbott Laboratories) and injected intrapleurally with 0.5 ml of 2% ethanol in injectable saline (Abbott Laboratories) containing 20 ug of A23187 (Cal BioChem-Novabiochem). Thirty minutes later the animals were euthanised and the pleural cavities lavaged with ice cold saline (Abbott Laboratories). The lavage fluid was then added to ice cold methanol (final methanol concentration 30%) to lyse cells and precipitate protein. Eicosanoids were determined by enzyme immunoassay by standard methods.

Question: With `CC(=NOC(c1ccc(OCc2ccc3ccccc3n2)cc1)C1CCCCC1)C(=O)O` (stereo not shown) [Example 2, Cyclohexyl-(4-(2-quinolylmethoxy)phenyl)methyl!-2-iminoxy propionic acid] as the molecule, how does the “% Inhibition (dose)” value read?
Answer: 89%

Same assay, conditions: Rattus norvegicus; dosed in 0.2% methocel 1 h before intrapleural A23187, male rats

Question: For `C/C(=N\OC(c1ccc(OCc2ccc3ccccc3n2)c(Cl)c1)C1CCCCC1)C(=O)O` (stereo not shown) [Example 45, Cyclohexyl-(3-chloro-4-(2-quinolylmethoxy)phenyl)methyl!-E-2-iminoxypropionic acid], which ED50 is on record?
Answer: 1.2 mg/kg

Question: With `C/C(=N\OC(CC(C)(C)c1ccccc1)c1ccc(OCc2ccc3ccccc3n2)cc1)C(=O)O` (stereo not shown) [Example 48, 3-methyl-3-phenyl-1-(4-(2-quinolylmethoxy)phenyl)but-1-yl!-E-2-iminoxypropionic acid] as the molecule, how does the ED50 read?
Answer: 2 mg/kg

System: 5-Lipoxygenase
Test: Inhibition of calcium ionophore-induced LTB4 formation in human polymorphonuclear leukocytes (PMNL)
Type: cell-based
Details: stimulated LTB4 formation in human PMNL; calcium ionophore 8.3 μM, 15 min preincubation
Procedure: Inhibition of leukotriene biosynthesis was evaluated in an assay involving calcium ionophore-induced LTB4 expressed in human polymorphornuclear leukocytes (PMNL). Human PMNL isolated from heparinized (20 USP units/mL) venous blood (25 mL) obtained from healthy volunteers was layered over an equal volume of Ficoll-Hypaque Mono-Poly Resolving Medium (ICN Flow, Costa Mesa, Calif.) and centrifugated at 400 x g for 40 min at 20° C. The PMNL was collected, erythrocytes lysed and washed 2x and suspended at 1.0×10^7 cells/mL in Earle's balanced salt solution with 17 mM Earle's HEPES. Aliquots of the cell suspension were preincubated with test compounds dissolved in DMSO (final concentration <2%) for 15 min. and stimulated with calcium ionophore (final concentration 8.3 μM) for 10 min. at 37° C. Incubations were stopped with the addition of two volumes of ice-cold methanol followed by centrifuging the cell suspensions at 4° C. for 10 min at 450 x g. The mount of LTB4 in the methanol extract was analyzed by enzyme-linked immunoassay or by HPLC analysis.

Question: With `O=C(O)C=NOC(c1ccc(OCc2ccc3ccccc3n2)cc1)C1CCCCC1` (stereo not shown) [Example 1, Cyclohexyl-(4-(2-quinolylmethoxy)phenyl)methyl!iminoxyacetic acid] as the molecule, how does the IC50 read?
Answer: 21 nM

Question: With `CC(=NOC(c1ccc(OCc2ccc3ccccc3n2)cc1)C1CCCCC1)C(=O)O` (stereo not shown) [Example 2, Cyclohexyl-(4-(2-quinolylmethoxy)phenyl)methyl!-2-iminoxy propionic acid] as the molecule, how does the IC50 read?
Answer: 4 nM

Question: Which IC50 does the source give for `O=C(O)c1ccc(C=NOC(c2ccc(OCc3ccc4ccccc4n3)cc2)C2CCCCC2)cc1` (stereo not shown) [Example 6, O-Cyclohexyl-(4-(2-quinolylmethoxy)phenyl)methyl!-4-carboxybenzaldoxime] here?
Answer: 32 nM

Question: Which IC50 does the source give for `O=C(O)C=NOC(CCCc1ccc(Cl)cc1)c1ccc(OCc2ccc3ccccc3n2)cc1` (stereo not shown) [Example 12, 4-(4-Chlorophenyl)-1-(4-(2-quinolylmethoxy)phenyl) butyl!iminoxyacetic acid] here?
Answer: 55 nM

Question: Which IC50 does the source give for `O=C(O)c1ccc(C=NOC(CC2CCCCC2)c2ccc(OCc3ccc4ccccc4n3)cc2)cc1` (stereo not shown) [Example 14, O-2-Cyclohexyl-1-(4-(2-quinolylmethoxy)phenyl)eth-1-yl!-4-carboxybenzaldoxime] here?
Answer: 4 nM

Question: Which IC50 does the source give for `CC(=NOC(CC1CCCCC1)c1ccc(OCc2ccc3ccccc3n2)cc1)C(=O)O` (stereo not shown) [Example 15, 2-Cyclohexyl-1-(4-(2-quinolylmethoxy)phenyl)eth-1-yl!-2-iminoxypropionic acid] here?
Answer: 6 nM

Question: Which IC50 does the source give for `O=C(O)C=NOCC(c1ccc(OCc2ccc3ccccc3n2)cc1)C1CCCCC1` (stereo not shown) [Example 26] here?
Answer: 5 nM

Question: Which IC50 does the source give for `O=C(O)C=NOCC(c1ccc(OCc2ccc3ccccc3n2)cc1)C1CCCCCC1` (stereo not shown) [Example 27, 2-Cycloheptyl-2-(4-(2-quinolylmethoxy)phenyl)eth-1-yl!iminoxyacetic acid] here?
Answer: 8 nM

Question: How did the IC50 turn out when `CC(C)(C=NOCC(c1ccc(OCc2ccc3ccccc3n2)cc1)C1CCCCCC1)C(=O)O` (stereo not shown) [Example 28, 2-cycloheptyl-2-(4-(2-quinolylmethoxy)phenyl)eth-1-yl!-3-iminoxy-2,2-dimethylpropionic acid] was run?
Answer: 5 nM

Question: How did the IC50 turn out when `COC(=O)/C(C)=N\OC(c1ccc(OCc2ccc3ccccc3n2)cc1)C1CCCCC1` (stereo not shown) [Example 30, Cyclohexyl-(4-(2-quinolylmethoxy)phenyl)methyl!-Z-2-iminoxypropionic acid methyl ester] was run?
Answer: 170 nM

Question: For `COC(=O)/C(C)=N/OC(c1ccc(OCc2ccc3ccccc3n2)cc1)C1CCCCC1` (stereo not shown) [Example 31, Cyclohexyl-(4-(2-quinolylmethoxy)phenyl)methyl!-E-2-iminoxypropionic acid methyl ester], which IC50 is on record?
Answer: 25 nM

Question: With `C/C(=N/OC(c1ccc(OCc2ccc3ccccc3n2)cc1)C1CCCCC1)C(=O)O` (stereo not shown) [Example 32, cyclohexyl-(4-(2-quinolylmethoxy)phenyl)methyl!-Z-2-iminoxypropionic acid] as the molecule, how does the IC50 read?
Answer: 170 nM

Question: With `C/C(=N\OC(c1ccc(OCc2ccc3ccccc3n2)cc1)C1CCCCC1)C(=O)O` (stereo not shown) [Example 33, cyclohexyl-(4-(2-quinolylmethoxy)phenyl)methyl!-E-2-iminoxypropionic acid] as the molecule, how does the IC50 read?
Answer: 15 nM

Question: Which IC50 does the source give for `COC(=O)/C(C)=N/O[C@@H](c1ccc(OCc2ccc3ccccc3n2)cc1)C1CCCCC1` [Example 34] here?
Answer: 470 nM

Question: For `C/C(=N\O[C@@H](c1ccc(OCc2ccc3ccccc3n2)cc1)C1CCCCC1)C(=O)O` [Example 35, (R)-Cyclohexyl-(4-(2-quinolylmethoxy)phenyl)methyl!-E-2-iminoxypropionic acid], which IC50 is on record?
Answer: 70 nM

Question: With `COC(=O)/C(C)=N/O[C@H](c1ccc(OCc2ccc3ccccc3n2)cc1)C1CCCCC1` [Example 36, (S)-Cyclohexyl-(4-(2-quinolylmethoxy)phenyl)methyl!-E-2-iminoxypropionic acid methyl ester] as the molecule, how does the IC50 read?
Answer: 50 nM

Question: With `C/C(=N\O[C@H](c1ccc(OCc2ccc3ccccc3n2)cc1)C1CCCCC1)C(=O)O` [Example 37, (S)-Cyclohexyl-(4-(2-quinolylmethoxy)phenyl)methyl!-E-2-iminoxypropionic acid] as the molecule, how does the IC50 read?
Answer: 6 nM

Question: For `O=C(O)/C=N/OC(c1ccc(OCc2ccc3ccccc3n2)cc1)C1CCCCC1` (stereo not shown) [Example 40, Cyclohexyl-(4-(2-quinolylmethoxy)phenyl)methyl!-E-iminoxyacetic acid], which IC50 is on record?
Answer: 17 nM

Question: With `C/C(=N\OC(Cc1ccccc1)c1ccc(OCc2ccc3ccccc3n2)cc1)C(=O)O` (stereo not shown) [Example 42, 2-phenyl-1-(4-(2-quinolylmethoxy)phenyl)eth-1-yl!-E-2-iminoxy propionic acid] as the molecule, how does the IC50 read?
Answer: < 100 nM

Question: For `C/C(=N\OC(c1ccc(OCc2ccc3ccccc3n2)cc1)c1cccs1)C(=O)O` (stereo not shown) [Example 43, 2-thienyl-(4-(2-quinolylmethoxy)phenyl)methyl!-E-2-iminoxy propionic acid], which IC50 is on record?
Answer: < 100 nM

Question: For `C/C(=N\OC(c1ccc(OCc2ccc3ccccc3n2)cc1Cl)C1CCCCC1)C(=O)O` (stereo not shown) [Example 44, Cyclohexyl-(2-chloro4-(2-quinolylmethoxy)phenyl)methyl!-E-2-iminoxypropionic acid], which IC50 is on record?
Answer: < 100 nM

Question: For `C/C(=N\OC(c1ccc(OCc2ccc3ccccc3n2)c(Cl)c1)C1CCCCC1)C(=O)O` (stereo not shown) [Example 45, Cyclohexyl-(3-chloro-4-(2-quinolylmethoxy)phenyl)methyl!-E-2-iminoxypropionic acid], which IC50 is on record?
Answer: < 100 nM

Question: For `C/C(=N\OC(CC(C)(C)c1ccccc1)c1ccc(OCc2ccc3ccccc3n2)cc1)C(=O)O` (stereo not shown) [Example 48, 3-methyl-3-phenyl-1-(4-(2-quinolylmethoxy)phenyl)but-1-yl!-E-2-iminoxypropionic acid], which IC50 is on record?
Answer: < 100 nM

Question: How did the IC50 turn out when `CC(C)(CC(O/N=C/C(=O)O)c1ccc(OCc2ccc3ccccc3n2)cc1)c1ccccc1` (stereo not shown) [Example 49, 3-methyl-3-phenyl-1-(4-(2-quinolylmethoxy)phenyl)but-1-yl!-E-2-iminoxyacetic acid] was run?
Answer: < 100 nM

Question: For `CCCCC(O/N=C(\C)C(=O)O)c1ccc(OCc2ccc3ccccc3n2)cc1` (stereo not shown) [Example 50, 4-(2-quinolylmethoxy)phenylpent-1-yl!-E-2-iminoxypropionic acid], which IC50 is on record?
Answer: < 100 nM

Question: For `CCCCC(O/N=C/C(=O)O)c1ccc(OCc2ccc3ccccc3n2)cc1` (stereo not shown) [Example 51], which IC50 is on record?
Answer: < 100 nM

Question: With `CC(=NOCC(c1ccc(OCc2ccc3ccccc3n2)cc1)C1CCCCC1)C(=O)O` (stereo not shown) [Example 55, Cyclohexyl-1-(4-(2-quinolylmethoxy)phenyl)eth-2-yl!-2-iminoxy propionic acid] as the molecule, how does the IC50 read?
Answer: 30 nM

Question: How did the IC50 turn out when `CC(=NOCc1ccc(OCc2ccc3ccccc3n2)cc1Cl)C(=O)O` [Example 57, 2-chloro-(4-(2-quinolylmethoxy)phenyl)methyl!-2-iminoxy propionic acid] was run?
Answer: < 100 nM

Question: For `CC(=NOC(c1ccc(OCc2ccc3ccccc3n2)cc1)C1CCCCCC1)C(=O)O` (stereo not shown) [Example 58, Cycloheptyl-(4-(2-quinolylmethoxy)phenyl)methyl!-2-iminoxy propionic acid], which IC50 is on record?
Answer: < 100 nM

Question: With `C/C(=N\OC[C@@H](c1ccc(OCc2ccc3ccccc3n2)cc1)C1CCCC1)C(=O)O` [Example 62] as the molecule, how does the IC50 read?
Answer: 36 nM
